From PubChem BioAssay (NCI)
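Five concentrations, 48 hours, 96-well plates. TGI: concentration producing complete growth inhibition.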

What was measured:
Assay in all cases: NCI anticancer screen, dose series, 48 h
[1] = tested on: IGROV1 ovarian
[2] = tested on: A549 NSCLC
[3] = tested on: TK-10 renal
[4] = tested on: LOX IMVI melanoma
[5] = tested on: U251 CNS
[6] = tested on: SW-620 colon
[7] = tested on: SF-539 CNS
[8] = tested on: ACHN renal
[9] = tested on: SK-MEL-28 melanoma
[10] = tested on: OVCAR-8 ovarian
[11] = tested on: A498 renal
[12] = tested on: NCI/ADR-RES ovarian
[13] = tested on: HOP-92 NSCLC
[14] = tested on: BT-549 breast
[15] = tested on: NCI-H460 lung
[16] = tested on: EKVX NSCLC
[17] = tested on: MDA-N
[18] = tested on: SK-MEL-2 melanoma
[19] = tested on: MDA-MB-435
[20] = tested on: RPMI-8226 leukemia
[21] = tested on: RXF 393 renal
[22] = tested on: HOP-62 NSCLC
[23] = tested on: OVCAR-5 ovarian
[24] = tested on: M14 melanoma
[25] = tested on: SN12C renal
[26] = tested on: NCI-H23 lung
[27] = tested on: 786-0 renal
[28] = tested on: SF-295 CNS
[29] = tested on: HL-60(TB) leukemia
[30] = tested on: OVCAR-3 ovarian
[31] = tested on: NCI-H226 lung
[32] = tested on: MDA-MB-231 breast
[33] = tested on: UO-31 renal
[34] = tested on: PC-3 prostate
[35] = tested on: K-562 leukemia
[36] = tested on: CAKI-1 renal
[37] = tested on: UACC-257 melanoma
[38] = tested on: SK-MEL-5 melanoma
[39] = tested on: HS 578T breast
[40] = tested on: COLO 205 colon
[41] = tested on: NCI-H522 lung
[42] = tested on: UACC-62 melanoma
[43] = tested on: OVCAR-4 ovarian
[44] = tested on: DU-145 prostate
[45] = tested on: KM12 colon
[46] = tested on: CCRF-CEM leukemia
[47] = tested on: SK-OV-3 ovarian
[48] = tested on: MALME-3M melanoma
[49] = tested on: HCT-15 colon
[50] = tested on: SR leukemia
[51] = tested on: SNB-19 CNS
[52] = tested on: HT29 colon
[53] = tested on: MOLT-4 leukemia
[54] = tested on: HCT-116 colon
[55] = tested on: T-47D breast
[56] = tested on: SF-268 CNS
[57] = tested on: SNB-75 CNS
[58] = tested on: MCF7 breast
[59] = tested on: HCC-2998 colon

## O=C1CSCC(=O)Nc2ccccc2N1
[1]
  TGI: > 100 µM
[2]
  TGI: > 100 µM
[3]
  TGI: > 100 µM
[4]
  TGI: > 100 µM
[5]
  TGI: > 100 µM
[6]
  TGI: > 100 µM
[7]
  TGI: > 100 µM
[8]
  TGI: > 100 µM
[9]
  TGI: > 100 µM
[10]
  TGI: > 100 µM
[11]
  TGI: > 100 µM
[12]
  TGI: > 100 µM
[13]
  TGI: > 100 µM
[14]
  TGI: > 100 µM
[15]
  TGI: > 100 µM
[16]
  TGI: > 100 µM
[17]
  TGI: > 100 µM
[18]
  TGI: > 100 µM
[19]
  TGI: > 100 µM
[20]
  TGI: > 100 µM
[21]
  TGI: > 100 µM
[22]
  TGI: > 100 µM
[23]
  TGI: > 100 µM
[24]
  TGI: > 100 µM
[25]
  TGI: > 100 µM
[26]
  TGI: > 100 µM
[27]
  TGI: > 100 µM
[28]
  TGI: > 100 µM
[29]
  TGI: > 100 µM
[30]
  TGI: > 100 µM
[31]
  TGI: > 100 µM
[32]
  TGI: > 100 µM
[33]
  TGI: > 100 µM
[34]
  TGI: > 100 µM
[35]
  TGI: > 100 µM
[36]
  TGI: > 100 µM
[37]
  TGI: > 100 µM
[38]
  TGI: > 100 µM
[39]
  TGI: > 100 µM
[40]
  TGI: > 100 µM
[41]
  TGI: > 100 µM
[42]
  TGI: > 100 µM
[43]
  TGI: > 100 µM
[44]
  TGI: > 100 µM
[45]
  TGI: > 100 µM
[46]
  TGI: > 100 µM
[47]
  TGI: > 100 µM
[48]
  TGI: > 100 µM
[49]
  TGI: > 100 µM
[50]
  TGI: > 100 µM
[51]
  TGI: > 100 µM
[52]
  TGI: > 100 µM
[53]
  TGI: > 100 µM
[54]
  TGI: > 100 µM
[55]
  TGI: > 100 µM
[56]
  TGI: > 100 µM

## CC(=O)OCC1OC(n2c3c(c(-c4ccc(C)cc4)c(C#N)c2=S)C(=O)CC(C)(C)C3)C(OC(C)=O)C(OC(C)=O)C1OC(C)=O (stereo unspecified)
[1]
  TGI: > 100 µM
[2]
  TGI: > 100 µM
[3]
  TGI: > 100 µM
[4]
  TGI: 26.2 µM
[5]
  TGI: > 100 µM
[6]
  TGI: > 100 µM
[7]
  TGI: 67.2 µM
[8]
  TGI: > 100 µM
[9]
  TGI: 66.3 µM
[10]
  TGI: > 100 µM
[11]
  TGI: > 100 µM
[12]
  TGI: > 100 µM
[13]
  TGI: > 100 µM
[14]
  TGI: 38.1 µM
[15]
  TGI: > 100 µM
[17]
  TGI: 41.5 µM
[19]
  TGI: > 100 µM
[20]
  TGI: > 100 µM
[21]
  TGI: 92.2 µM
[22]
  TGI: > 100 µM
[57]
  TGI: 82.5 µM
[23]
  TGI: > 100 µM
[24]
  TGI: > 100 µM
[25]
  TGI: 42.7 µM
[26]
  TGI: > 100 µM
[27]
  TGI: > 100 µM
[28]
  TGI: 89 µM
[29]
  TGI: > 100 µM
[30]
  TGI: > 100 µM
[31]
  TGI: 61.8 µM
[32]
  TGI: 62.1 µM
[33]
  TGI: > 100 µM
[34]
  TGI: 60 µM
[35]
  TGI: 95.3 µM
[36]
  TGI: > 100 µM
[37]
  TGI: 38.3 µM
[38]
  TGI: > 100 µM
[39]
  TGI: > 100 µM
[40]
  TGI: > 100 µM
[41]
  TGI: > 100 µM
[42]
  TGI: 44.4 µM
[44]
  TGI: > 100 µM
[45]
  TGI: > 100 µM
[46]
  TGI: > 100 µM
[58]
  TGI: > 100 µM
[48]
  TGI: > 100 µM
[50]
  TGI: > 100 µM
[51]
  TGI: > 100 µM
[52]
  TGI: > 100 µM
[53]
  TGI: > 100 µM
[54]
  TGI: > 100 µM
[56]
  TGI: 94.9 µM

## C/C=C1/CC(C(=O)OC)N(C(=O)OCc2ccccc2)C1=S (stereo unspecified)
[1]
  TGI: > 100 µM
[2]
  TGI: > 100 µM
[3]
  TGI: > 100 µM
[5]
  TGI: > 100 µM
[59]
  TGI: > 100 µM
[6]
  TGI: > 100 µM
[8]
  TGI: > 100 µM
[9]
  TGI: > 100 µM
[10]
  TGI: > 100 µM
[11]
  TGI: > 100 µM
[12]
  TGI: > 100 µM
[13]
  TGI: > 100 µM
[14]
  TGI: > 100 µM
[15]
  TGI: 38.8 µM
[16]
  TGI: > 100 µM
[17]
  TGI: > 100 µM
[18]
  TGI: > 100 µM
[19]
  TGI: > 100 µM
[20]
  TGI: > 100 µM
[21]
  TGI: > 100 µM
[22]
  TGI: > 100 µM
[57]
  TGI: > 100 µM
[23]
  TGI: > 100 µM
[24]
  TGI: > 100 µM
[26]
  TGI: > 100 µM
[27]
  TGI: > 100 µM
[28]
  TGI: > 100 µM
[30]
  TGI: > 100 µM
[32]
  TGI: > 100 µM
[33]
  TGI: > 100 µM
[34]
  TGI: > 100 µM
[35]
  TGI: > 100 µM
[36]
  TGI: > 100 µM
[37]
  TGI: > 100 µM
[38]
  TGI: > 100 µM
[39]
  TGI: > 100 µM
[40]
  TGI: > 100 µM
[41]
  TGI: > 100 µM
[42]
  TGI: > 100 µM
[43]
  TGI: > 100 µM
[44]
  TGI: > 100 µM
[45]
  TGI: > 100 µM
[47]
  TGI: > 100 µM
[58]
  TGI: > 100 µM
[48]
  TGI: > 100 µM
[49]
  TGI: > 100 µM
[51]
  TGI: > 100 µM
[52]
  TGI: > 100 µM
[53]
  TGI: > 100 µM
[54]
  TGI: > 100 µM
[56]
  TGI: > 100 µM

## COC(=O)C(=O)C(C(=O)C(=O)Nc1ccc(Cl)c(Cl)c1)c1nc2ccc(C(=O)c3ccccc3)cc2[nH]c1=O (stereo unspecified)
[1]
  TGI: > 100 µM
[2]
  TGI: > 100 µM
[3]
  TGI: > 100 µM
[4]
  TGI: > 100 µM
[5]
  TGI: > 100 µM
[6]
  TGI: > 100 µM
[7]
  TGI: > 100 µM
[8]
  TGI: > 100 µM
[9]
  TGI: > 100 µM
[10]
  TGI: > 100 µM
[11]
  TGI: > 100 µM
[12]
  TGI: > 100 µM
[13]
  TGI: > 100 µM
[14]
  TGI: > 100 µM
[16]
  TGI: > 100 µM
[17]
  TGI: > 100 µM
[18]
  TGI: > 100 µM
[19]
  TGI: > 100 µM
[20]
  TGI: > 100 µM
[21]
  TGI: > 100 µM
[22]
  TGI: > 100 µM
[57]
  TGI: > 100 µM
[23]
  TGI: > 100 µM
[24]
  TGI: > 100 µM
[25]
  TGI: > 100 µM
[26]
  TGI: > 100 µM
[27]
  TGI: > 100 µM
[28]
  TGI: > 100 µM
[29]
  TGI: > 100 µM
[30]
  TGI: > 100 µM
[31]
  TGI: > 100 µM
[32]
  TGI: > 100 µM
[33]
  TGI: > 100 µM
[34]
  TGI: > 100 µM
[35]
  TGI: 12.9 µM
[36]
  TGI: > 100 µM
[37]
  TGI: > 100 µM
[38]
  TGI: > 100 µM
[39]
  TGI: > 100 µM
[41]
  TGI: > 100 µM
[42]
  TGI: > 100 µM
[45]
  TGI: > 100 µM
[46]
  TGI: > 100 µM
[47]
  TGI: > 100 µM
[58]
  TGI: > 100 µM
[48]
  TGI: > 100 µM
[51]
  TGI: > 100 µM
[52]
  TGI: > 100 µM
[53]
  TGI: > 100 µM
[54]
  TGI: > 100 µM
[55]
  TGI: > 100 µM
[56]
  TGI: > 100 µM
